Results: patent publication US20240360075A1, “N-SUBSTITUTED C6 CYCLYL CARBOXAMIDE COMPOUNDS AND USES THEREOF” (ALCON INC., priority 2023, published 2024)
Read-outs that look alike come from different tables or passages of the source.

Tests used:
[1] = target: mouse cold-menthol receptor TRPM8 (Mus musculus, UniProt Q8R4D5); details: described by Behrendt et al.; cited from earlier work
TRPM8 [2] = target: TRPM8 (Mus musculus, UniProt Q8R4D5); details: TRPV1 antagonists, described by Behrendt et al.; read-out: IC50 to block the response of TRPM8 to menthol; cited from earlier work
Chain of TRPM8 (Mus musculus, UniProt Q8R4D5) (Q8R4D5 whole entry): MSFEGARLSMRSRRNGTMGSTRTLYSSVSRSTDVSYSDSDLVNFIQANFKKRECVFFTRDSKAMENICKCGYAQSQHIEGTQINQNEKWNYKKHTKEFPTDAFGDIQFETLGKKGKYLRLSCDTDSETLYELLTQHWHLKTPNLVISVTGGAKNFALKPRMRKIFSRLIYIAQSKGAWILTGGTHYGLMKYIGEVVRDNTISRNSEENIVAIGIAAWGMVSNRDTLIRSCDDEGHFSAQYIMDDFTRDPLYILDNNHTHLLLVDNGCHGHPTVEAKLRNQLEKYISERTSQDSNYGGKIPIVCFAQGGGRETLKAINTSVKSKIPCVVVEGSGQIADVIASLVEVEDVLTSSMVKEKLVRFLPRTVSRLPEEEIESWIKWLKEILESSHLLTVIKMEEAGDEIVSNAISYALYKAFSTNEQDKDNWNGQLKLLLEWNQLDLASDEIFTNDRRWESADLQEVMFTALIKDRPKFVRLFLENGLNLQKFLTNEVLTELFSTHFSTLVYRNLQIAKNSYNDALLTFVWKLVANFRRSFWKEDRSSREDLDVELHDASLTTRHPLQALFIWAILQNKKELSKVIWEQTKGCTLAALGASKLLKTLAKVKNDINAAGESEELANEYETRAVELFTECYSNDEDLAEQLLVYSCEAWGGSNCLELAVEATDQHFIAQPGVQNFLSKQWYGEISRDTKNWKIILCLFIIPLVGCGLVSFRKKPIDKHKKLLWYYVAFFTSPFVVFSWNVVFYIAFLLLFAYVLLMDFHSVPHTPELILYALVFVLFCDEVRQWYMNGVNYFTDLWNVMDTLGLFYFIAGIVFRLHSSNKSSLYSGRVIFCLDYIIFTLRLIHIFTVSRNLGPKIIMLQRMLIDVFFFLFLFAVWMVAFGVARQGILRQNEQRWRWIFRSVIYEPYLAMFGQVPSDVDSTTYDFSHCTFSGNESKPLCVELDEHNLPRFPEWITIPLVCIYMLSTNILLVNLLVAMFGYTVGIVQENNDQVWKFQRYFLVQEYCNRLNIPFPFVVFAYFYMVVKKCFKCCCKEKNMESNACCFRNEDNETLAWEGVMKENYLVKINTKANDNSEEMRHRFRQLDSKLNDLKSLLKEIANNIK

TRPM8 [3] = target: T1, TRPM8 (Homo sapiens, UniProt Q7Z2W7); details: reported by the Eurofins website; cited from earlier work
T1 construct: purchased Eurofins (Cerep) item #3316
T1 sequence (Q7Z2W7 whole entry): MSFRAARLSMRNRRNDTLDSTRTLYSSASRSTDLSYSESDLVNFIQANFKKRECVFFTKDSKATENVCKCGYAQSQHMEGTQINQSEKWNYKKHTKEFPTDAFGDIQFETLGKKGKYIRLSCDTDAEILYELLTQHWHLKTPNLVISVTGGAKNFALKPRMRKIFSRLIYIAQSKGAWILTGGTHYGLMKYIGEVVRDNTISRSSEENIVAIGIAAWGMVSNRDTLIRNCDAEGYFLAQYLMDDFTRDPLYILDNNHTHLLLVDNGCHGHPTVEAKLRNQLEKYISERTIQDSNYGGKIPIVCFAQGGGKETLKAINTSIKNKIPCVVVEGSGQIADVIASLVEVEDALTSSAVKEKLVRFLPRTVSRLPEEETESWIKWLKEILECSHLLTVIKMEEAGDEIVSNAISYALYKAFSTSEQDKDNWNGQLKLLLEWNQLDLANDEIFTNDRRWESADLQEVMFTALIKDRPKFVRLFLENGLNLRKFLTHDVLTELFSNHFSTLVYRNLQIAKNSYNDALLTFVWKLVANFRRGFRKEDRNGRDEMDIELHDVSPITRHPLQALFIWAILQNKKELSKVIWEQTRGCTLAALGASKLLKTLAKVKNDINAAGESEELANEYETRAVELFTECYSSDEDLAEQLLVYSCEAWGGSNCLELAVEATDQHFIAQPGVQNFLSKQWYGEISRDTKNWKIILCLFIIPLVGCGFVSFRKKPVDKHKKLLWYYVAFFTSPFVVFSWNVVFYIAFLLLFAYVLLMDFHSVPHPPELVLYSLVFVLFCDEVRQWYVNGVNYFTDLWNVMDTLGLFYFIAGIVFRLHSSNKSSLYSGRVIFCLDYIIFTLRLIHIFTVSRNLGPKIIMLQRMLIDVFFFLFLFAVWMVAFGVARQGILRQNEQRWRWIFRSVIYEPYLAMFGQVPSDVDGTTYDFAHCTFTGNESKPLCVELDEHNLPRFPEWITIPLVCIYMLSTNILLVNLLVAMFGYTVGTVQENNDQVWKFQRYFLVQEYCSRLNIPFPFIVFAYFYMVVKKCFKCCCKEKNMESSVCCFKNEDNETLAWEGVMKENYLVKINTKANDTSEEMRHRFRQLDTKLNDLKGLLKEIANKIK

TRPM8 [4] = target: T1, TRPM8; assay: TRPM8 Human Transient Potential Ion Channel Cell Based Agonist Calcium Flux Assay (Eurofins Cerep item #3316); details: for Emax / Percent Agonist: control activator ligand icilin; for Emax: read-out: Percent Agonist; for EC50: room temperature
Description: Compounds can be tested using the commercially available kit from Eurofins “TRPM8 Human Transient Potential Ion Channel Cell Based Agonist Calcium Flux Assay, Cerep” item #3316, or using the assay, referenced by Eurofins, and described in Behrendt et al. “Characterization of the mouse cold-menthol receptor TRPM8 and vanilloid receptor type-1 VR1 using a fluorometric imaging plate reader (FLIPR) assay,” Br J Pharmacol. 2004 Feb;141(4):737-45, which are each incorporated herein by reference. […] 4.
The assay is done at room temperature and measures calcium flux.

Chain of mouse cold-menthol receptor TRPM8 (Q8R4D5 whole entry): as the sequence (Q8R4D5 whole entry) above

Row | Structure (SMILES) | EC50 [1] [µM] | Emax (TRPM8 [4]) [%] | EC50 (TRPM8 [4]) [µM] | other results
1 | C=CC(C)(O)CCC=C(C)C (stereo not shown) [linalool] | 6700 ± 2000 | – | – | –
2 | C=C(C)[C@@H]1CC[C@@H](C)C[C@H]1O [Coolact P] | 66 ± 20 | – | – | –
3 | CC(C)(C)c1ccc(NC(=O)N2CCN(c3ncccc3Cl)CC2)cc1 [BCTC, 4-(3-Chloro-2-pyridinyl)-N-[4-(1,1-dimethylethyl)phenyl]-1-piperazinecarboxamide] | – | – | – | IC50 (TRPM8 [2]): 0.8 ± 1 µM
4 | CC12CCC(CC1)C(C)(C)O2 [eucalyptol] | 7700 ± 2000 | – | – | –
5 | Oc1cc2c(cc1O)CN(C(=S)NCCc1ccc(Cl)cc1)CCC2 [capsazepine] | – | – | – | IC50 (TRPM8 [2]): 18 ± 1.1 µM
6 | CC(C)[C@@H]1CC[C@@H](C)C[C@H]1O [(−)menthol] | 4.1 ± 1.3 | – | – | –
7 | CC(C)(C)c1ccc(NC(=S)N2CCN(c3ncccc3Cl)CC2)cc1 [thio-BCTC] | – | – | – | IC50 (TRPM8 [2]): 3.5 ± 1.1 µM
8 | CC1CCC(C(C)C)C(OCC(O)CO)C1 (stereo not shown) [cooling agent 10] | 6 ± 2.2 | – | – | –
9 | CNC(=O)C(C)(C(C)C)C(C)C [WS-23] | 44 ± 7.3 | – | – | –
10 | C[C@@H]1CC[C@@H](C(C)(C)O)[C@H](O)C1 [PMD38] | 31 ± 1.1 | – | – | –
11 | CC1CCC(C(C)C)C2(C1)OCC(CO)O2 (stereo not shown) [frescolatMAG] | 4.8 ± 1.1 | – | – | –
12 | CC(C)[C@H]1CC[C@H](C)C[C@@H]1O [(+)menthol] | 14.4 ± 1.3 | – | – | –
13 | O=C1NC(c2cccc([N+](=O)[O-])c2)=CCN1c1ccccc1O [icilin] | – | – | – | EC50 (TRPM8 [3]): 0.028 µM
14 | CC(O)C(=O)O[C@@H]1C[C@H](C)CC[C@H]1C(C)C (stereo partly shown) [FrescolatML] | 3.3 ± 1.5 | – | – | –
15 | COC(=O)c1cc(NC(=O)[C@@H]2C[C@H](C)CC[C@H]2C(C)C)sn1 [Compound 62] | – | > 75 | < 0.5 | –
16 | CC(C)=CCC/C(C)=C/CO [geraniol] | 5900 ± 1600 | – | – | –
17 | CC(C)[C@@H]1CC[C@@H](C)C[C@H]1C(=O)Nc1ccc(OCCN2CCCC2)cc1 [Compound 19] | – | > 75 | < 0.5 | –
18 | CC(C)[C@@H]1CC[C@@H](C)C[C@H]1C(=O)Nc1ccc(N2CCN(C)CC2)cc1 [Compound 2] | – | > 100 | < 0.5 | –
19 | CC(C)[C@@H]1CC[C@@H](C)C[C@H]1C(=O)NN1CCOCC1 [Compound 100] | – | > 35 | – | –
20 | COc1ccc(NC(=O)[C@@H]2C[C@H](C)CC[C@H]2C(C)C)cc1 [Compound 1] | – | – | 0.024 | Percent Agonist (TRPM8 [4]): 100%
21 | CC(C)[C@@H]1CC[C@@H](C)C[C@H]1C(=O)NC12CC(C(=O)O)(C1)C2 [Compound 53] | – | – | > 10 | –

Row | Structure (SMILES) | EC50 [1] [µM] | Emax (TRPM8 [4]) [%] | EC50 (TRPM8 [4]) [µM] | other results
22 | COC12CCC(NC(=O)[C@@H]3C[C@H](C)CC[C@H]3C(C)C)(CC1)CC2 [Compound 55] | – | > 75 | < 0.1 | –
23 | CC(C)[C@@H]1CC[C@@H](C)C[C@H]1C(=O)NC1CCS(=O)(=O)CC1 [Compound 36] | – | > 75 | < 10 | –
24 | CCNC(=O)C1CC(C)CCC1C(C)C (stereo not shown) [WS-3] | 3.7 ± 1.7 | – | – | –
25 | CC(C)[C@@H]1CC[C@@H](C)C[C@H]1C(=O)NC1CN(CC(=O)OC(C)(C)C)C1 [Compound 30] | – | – | > 10 | –
26 | COC12CCC(NC(=O)[C@H]3CCC[C@@H](NC(C)=O)C3)(CC1)CC2 [Compound 173] | – | – | > 10 | –
27 | CC(C)[C@@H]1CC[C@@H](C)C[C@H]1C(=O)Nc1ccc(C2(CCO)COC2)cc1 [Compound 20] | – | > 100 | < 0.5 | –
28 | C#CCNC(=O)[C@@H]1C[C@H](C)CC[C@H]1C(C)C [Compound 101] | – | > 75 | < 5 | –
29 | COC(=O)C12CC(NC(=O)[C@@H]3C[C@H](C)CC[C@H]3C(C)C)(C1)C2 [Compound 31] | – | > 75 | < 0.1 | –
30 | CC(C)[C@@H]1CC[C@@H](C)C[C@H]1C(=O)Nc1ccc(N2CCOCC2)cc1 [Compound 18] | – | > 50 | < 0.1 | –
31 | CC(C)[C@@H]1CC[C@@H](C)C[C@H]1C(=O)NC1CC2C(C1)C2(F)F (stereo partly shown) [92 or 102] | – | – | < 0.1 | Percent Agonist (TRPM8 [4]): >50%
32 | CC(C)[C@@H]1CC[C@@H](C)C[C@H]1C(=O)Nc1ccccc1CCN [Compound 67] | – | > 75 | < 0.1 | –
33 | COc1ncc(NC(=O)[C@@H]2C[C@H](C)CC[C@H]2C(C)C)cc1C [Compound 88] | – | > 35 | < 5 | –
34 | CC(C)[C@@H]1CC[C@@H](C)C[C@H]1C(=O)Nc1cccc(C2(O)COC2)c1 [Compound 23] | – | > 75 | < 0.5 | –
35 | CC(C)[C@@H]1CC[C@@H](C)C[C@H]1C(=O)Nc1ccc(CO)cc1 [Compound 15] | – | > 75 | < 0.1 | –
36 | COc1ncc(NC(=O)[C@@H]2C[C@H](C)CC[C@H]2C(C)C)cc1F [Compound 82] | – | > 75 | < 0.5 | –
37 | CC(C)[C@@H]1CC[C@@H](C)C[C@H]1C(=O)Nc1ccc(C2CC2)cc1 [Compound 6] | – | > 75 | < 0.1 | –
38 | CC(C)[C@@H]1CC[C@@H](C)C[C@H]1C(=O)NC1COC1 [Compound 38] | – | > 75 | < 0.5 | –
39 | CC(CC=O)CCCC(C)(C)O (stereo not shown) [hydroxycitronellal] | 19600 ± 2200 | – | – | –
40 | COCCN1CC(NC(=O)[C@@H]2C[C@H](C)CC[C@H]2C(C)C)C1 [Compound 26] | – | > 75 | < 1 | –
41 | COCCOCCOc1cccc(NC(=O)[C@@H]2C[C@H](C)CC[C@H]2C(C)C)c1 [Compound 9] | – | > 75 | < 5 | –
